PubChem BioAssay (NCI)
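Exposure lasted 48 hours, with cells grown in 96-well plates and compounds tested at five concentrations. Here, GI50 denotes the concentration required for 50% inhibition of growth. TGI: total growth inhibition.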

Assays:
Assay in all cases: NCI tumour cell line growth inhibition, 48 h
[1] = test system: A498 renal
[2] = test system: NCI-H460 lung
[3] = test system: OVCAR-3 ovarian
[4] = test system: NCI/ADR-RES ovarian
[5] = test system: PC-3 prostate
[6] = test system: BT-549 breast
[7] = test system: NCI-H226 lung
[8] = test system: CCRF-CEM leukemia
[9] = test system: HCT-15 colon
[10] = test system: SNB-75 CNS
[11] = test system: UO-31 renal
[12] = test system: CAKI-1 renal
[13] = test system: UACC-257 melanoma
[14] = test system: MDA-MB-435
[15] = test system: SW-620 colon
[16] = test system: IGROV1 ovarian
[17] = test system: RPMI-8226 leukemia
[18] = test system: SNB-19 CNS
[19] = test system: SK-MEL-28 melanoma
[20] = test system: SF-268 CNS
[21] = test system: HCT-116 colon
[22] = test system: MCF7 breast
[23] = test system: NCI-H23 lung
[24] = test system: HT29 colon
[25] = test system: SK-MEL-5 melanoma
[26] = test system: MDA-MB-231 breast
[27] = test system: OVCAR-5 ovarian
[28] = test system: COLO 205 colon
[29] = test system: SF-295 CNS
[30] = test system: OVCAR-8 ovarian
[31] = test system: LOX IMVI melanoma
[32] = test system: MALME-3M melanoma
[33] = test system: T-47D breast
[34] = test system: SK-MEL-2 melanoma
[35] = test system: SR leukemia
[36] = test system: ACHN renal
[37] = test system: OVCAR-4 ovarian
[38] = test system: HCC-2998 colon
[39] = test system: SN12C renal
[40] = test system: TK-10 renal
[41] = test system: NCI-H522 lung
[42] = test system: MOLT-4 leukemia
[43] = test system: 786-0 renal
[44] = test system: A549 NSCLC
[45] = test system: MDA-MB-468 breast
[46] = test system: M14 melanoma
[47] = test system: UACC-62 melanoma
[48] = test system: U251 CNS
[49] = test system: K-562 leukemia
[50] = test system: HL-60(TB) leukemia
[51] = test system: KM12 colon
[52] = test system: HOP-62 NSCLC
[53] = test system: HOP-92 NSCLC
[54] = test system: HS 578T breast
[55] = test system: DU-145 prostate
[56] = test system: RXF 393 renal
[57] = test system: SK-OV-3 ovarian
[58] = test system: EKVX NSCLC
[59] = test system: SF-539 CNS

O=C(Nc1ccc(Cl)c(C(F)(F)F)c1)N1CCN(c2cc(-c3cn(-c4ccccc4)nc3-c3cccc(O)c3)ccn2)CC1
GI50 [1]: 4.72 µM
TGI [1]: 21 µM
GI50 [2]: 2.47 µM
TGI [2]: > 22 µM
GI50 [3]: 1.76 µM
TGI [3]: 11.5 µM
GI50 [4]: 2.91 µM
TGI [4]: 11.9 µM
GI50 [5]: 0.967 µM
TGI [5]: 17 µM
GI50 [6]: 3.33 µM
TGI [6]: 7.99 µM
GI50 [7]: 3.22 µM
TGI [7]: 15.8 µM
GI50 [8]: 1.59 µM
TGI [8]: 9.71 µM
GI50 [9]: 2.84 µM
TGI [9]: > 22 µM
GI50 [10]: 0.634 µM
TGI [10]: 11.1 µM
GI50 [11]: 3 µM
TGI [11]: > 22 µM
GI50 [12]: 4.18 µM
TGI [12]: 19.4 µM
GI50 [13]: 4.77 µM
TGI [13]: 14.3 µM
GI50 [14]: 2.29 µM
TGI [14]: 6.33 µM
GI50 [15]: 4.78 µM
TGI [15]: > 22 µM
GI50 [16]: 5.11 µM
TGI [16]: > 22 µM
GI50 [17]: 1.21 µM
TGI [17]: 11.8 µM
GI50 [18]: 4.06 µM
TGI [18]: > 22 µM
GI50 [19]: 3.41 µM
TGI [19]: 10.3 µM
GI50 [20]: 3.3 µM
TGI [20]: > 22 µM
GI50 [21]: 1.86 µM
TGI [21]: > 22 µM
GI50 [22]: 1.8 µM
TGI [22]: 10.1 µM
GI50 [23]: 3.69 µM
TGI [23]: 14.9 µM
GI50 [24]: 4.1 µM
TGI [24]: > 22 µM
GI50 [25]: 2.58 µM
TGI [25]: 5.45 µM
GI50 [26]: 3.07 µM
TGI [26]: 7.57 µM
GI50 [27]: 4.13 µM
TGI [27]: 10.5 µM
GI50 [28]: 3.01 µM
TGI [28]: 9.39 µM
GI50 [29]: 1.5 µM
TGI [29]: 7.25 µM
GI50 [30]: 4.72 µM
TGI [30]: > 22 µM
GI50 [31]: 2.99 µM
TGI [31]: 6.52 µM
GI50 [32]: 3.3 µM
TGI [32]: 8.95 µM
GI50 [33]: 1.13 µM
TGI [33]: 14.8 µM
GI50 [34]: 3.54 µM
TGI [34]: 7.56 µM
GI50 [35]: 3.07 µM
TGI [35]: > 22 µM
GI50 [36]: 3 µM
TGI [36]: 17 µM
GI50 [37]: 2.02 µM
TGI [37]: > 22 µM
GI50 [38]: 6.1 µM
TGI [38]: > 22 µM
GI50 [39]: 3.21 µM
TGI [39]: > 22 µM
GI50 [40]: 5.92 µM
TGI [40]: > 22 µM
GI50 [41]: 2.77 µM
TGI [41]: 9.26 µM
GI50 [42]: 0.93 µM
TGI [42]: 7.58 µM
GI50 [43]: 4.02 µM
TGI [43]: > 22 µM
GI50 [44]: 4.34 µM
TGI [44]: > 22 µM
GI50 [45]: 1.03 µM
TGI [45]: 7.22 µM
GI50 [46]: 3.03 µM
TGI [46]: 12.5 µM
GI50 [47]: 2.68 µM
TGI [47]: 5.77 µM
GI50 [48]: 4.23 µM
TGI [48]: > 22 µM
GI50 [49]: 2.13 µM
TGI [49]: > 22 µM
GI50 [50]: 2.34 µM
TGI [50]: 8.58 µM
GI50 [51]: 3.34 µM
TGI [51]: 15.2 µM
GI50 [52]: 6.28 µM
TGI [52]: > 22 µM
GI50 [53]: 2.59 µM
TGI [53]: 15.9 µM
GI50 [54]: 3.39 µM
TGI [54]: 15.8 µM
GI50 [55]: 7.15 µM
TGI [55]: > 22 µM
GI50 [56]: 2.42 µM
TGI [56]: 9.79 µM
GI50 [57]: 6.43 µM
TGI [57]: > 22 µM
GI50 [58]: 2.57 µM
TGI [58]: 19.6 µM
GI50 [59]: 4.21 µM
TGI [59]: > 22 µM
